The source made the active and inactive calls. No cut-off for these calls is given here. Where a SMILES comes first, the peptide text is derived from it. [ ]: non-standard residue; d: D form. The star is where a group is joined. ξ: configuration not given here. αGalNAc = CC(=O)N[C@@H]1[C@@H](O)[C@@H](O)[C@@H](CO)O[C@@H]1*; ξGly(tetradecyl) = CCCCCCCCCCCCCCC(N)C(=O)O
Assays:
Mus musculus [1] = test: Immunostimulatory activity in BALB/c (H-2d) mouse assessed as increase in IgG level at 30 ug, sc per week for 5 weeks measured on day 9 after last immunization by ELISA relative to untreated-control; format: functional, organism-based
Mus musculus [2] = test: Immunostimulatory activity in BALB/c (H-2d) mouse assessed as increase in IgG level at 30 ug, sc per week for 5 weeks coadministered with complete freund's adjuvant measured on day 9 after last immunization by ELISA; format: functional, organism-based
[3] = biological target: Toll-like receptor 2 (Homo sapiens) (UniProt O60603); test: Activation of human TLR2 expressed in HEK293 cells at 100 to 300 nM after 4 hrs by luciferase reporter gene assay; format: cell-based
Chain of Toll-like receptor 2 (Homo sapiens) (O60603 whole entry): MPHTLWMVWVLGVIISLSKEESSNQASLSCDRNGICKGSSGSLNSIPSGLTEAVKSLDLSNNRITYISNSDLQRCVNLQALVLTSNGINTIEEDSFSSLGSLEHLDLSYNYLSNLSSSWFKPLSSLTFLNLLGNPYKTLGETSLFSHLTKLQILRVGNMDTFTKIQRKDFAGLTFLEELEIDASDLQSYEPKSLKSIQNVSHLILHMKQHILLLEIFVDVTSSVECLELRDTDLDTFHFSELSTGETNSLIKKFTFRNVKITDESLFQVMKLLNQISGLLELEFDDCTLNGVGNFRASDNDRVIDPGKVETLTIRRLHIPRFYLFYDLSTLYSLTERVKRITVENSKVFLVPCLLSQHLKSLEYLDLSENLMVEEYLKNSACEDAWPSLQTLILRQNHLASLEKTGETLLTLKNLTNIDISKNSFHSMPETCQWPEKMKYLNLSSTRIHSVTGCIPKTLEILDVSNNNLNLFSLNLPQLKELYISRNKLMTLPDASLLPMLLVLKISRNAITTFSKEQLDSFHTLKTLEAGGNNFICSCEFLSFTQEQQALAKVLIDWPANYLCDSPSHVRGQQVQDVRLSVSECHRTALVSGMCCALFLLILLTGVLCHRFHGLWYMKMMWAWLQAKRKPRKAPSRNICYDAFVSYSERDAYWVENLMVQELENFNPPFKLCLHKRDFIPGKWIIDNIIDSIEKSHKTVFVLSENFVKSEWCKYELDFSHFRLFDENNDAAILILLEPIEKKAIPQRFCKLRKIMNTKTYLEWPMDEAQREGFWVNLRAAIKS

Activity [3]	SMILES	Activity (Mus musculus [1])	Activity (Mus musculus [2])
–	CCCCCCCCCCCCCCC(NC(=O)C(CCCCCCCCCCCCCC)NC(=O)[C@H](CO)NC(=O)[C@H](CO)NC(=O)[C@H](CCCCN)NC(=O)[C@H](CO[C@H]1O[C@H](CO)[C@H](O)[C@H](O)[C@H]1NC(C)=O)NC(=O)[C@H](CO[C@H]1O[C@H](CO)[C@H](O)[C@H](O)[C@H]1NC(C)=O)NC(=O)[C@H](CO[C@H]1O[C@H](CO)[C@H](O)[C@H](O)[C@H]1NC(C)=O)NC(=O)[C@H](CCCCNC(=O)[C@H](CC(C)C)NC(=O)[C@H](CCCCN)NC(=O)[C@H](CCC(=O)O)NC(=O)[C@H](Cc1ccccc1)NC(=O)[C@H](CC(N)=O)NC(=O)[C@@H](NC(=O)[C@@H](NC(=O)[C@H](CO)NC(C)=O)[C@@H](C)CC)[C@@H](C)CC)NC(=O)[C@@H](NC(=O)[C@H](CC(=O)O)NC(=O)[C@H](CCCCN)NC(=O)[C@H](Cc1ccc(O)cc1)NC(=O)[C@@H](NC(=O)[C@@H](NC(=O)[C@H](CCCCN)NC(=O)[C@H](Cc1c[nH]c2ccccc12)NC(=O)[C@@H](NC(=O)[C@H](C)NC(=O)[C@H](Cc1ccccc1)NC(=O)[C@H](CC(C)C)NC(=O)[C@H](CCCCN)NC(C)=O)C(C)C)[C@@H](C)CC)[C@@H](C)O)[C@@H](C)O)C(N)=O (stereo partly specified)	inactive	–
–	CCCCCCCCCCCCCCC(NC(=O)C(CCCCCCCCCCCCCC)NC(=O)[C@H](CO)NC(=O)[C@H](CO)NC(=O)[C@H](CCCCN)NC(=O)[C@H](CO[C@H]1O[C@H](CO)[C@H](O)[C@H](O)[C@H]1NC(C)=O)NC(=O)[C@H](CO[C@H]1O[C@H](CO)[C@H](O)[C@H](O)[C@H]1NC(C)=O)NC(=O)[C@H](CO[C@H]1O[C@H](CO)[C@H](O)[C@H](O)[C@H]1NC(C)=O)NC(=O)[C@@H](NC(=O)[C@H](CC(=O)O)NC(=O)[C@H](CCCCN)NC(=O)[C@H](Cc1ccc(O)cc1)NC(=O)[C@@H](NC(=O)[C@@H](NC(=O)[C@H](CCCCN)NC(=O)[C@H](Cc1c[nH]c2ccccc12)NC(=O)[C@@H](NC(=O)[C@H](C)NC(=O)[C@H](Cc1ccccc1)NC(=O)[C@H](CC(C)C)NC(=O)[C@H](CCCCN)NC(=O)[C@H](CC(C)C)NC(=O)[C@H](CCCCN)NC(=O)[C@H](CCC(=O)O)NC(=O)[C@H](Cc1ccccc1)NC(=O)[C@H](CC(N)=O)NC(=O)[C@@H](NC(=O)[C@@H](NC(=O)[C@H](CO)NC(C)=O)[C@@H](C)CC)[C@@H](C)CC)C(C)C)[C@@H](C)CC)[C@@H](C)O)[C@@H](C)O)C(N)=O (stereo partly specified)	inactive	Active
–	CCCCCCCCCCCCCCC(NC(=O)C(CCCCCCCCCCCCCC)NC(=O)[C@H](CO)NC(=O)[C@H](CO)NC(=O)[C@H](CCCCN)NC(=O)[C@H](CO[C@H]1O[C@H](CO)[C@H](O)[C@H](O)[C@H]1NC(C)=O)NC(=O)[C@H](CO[C@H]1O[C@H](CO)[C@H](O)[C@H](O)[C@H]1NC(C)=O)NC(=O)[C@H](CO[C@H]1O[C@H](CO)[C@H](O)[C@H](O)[C@H]1NC(C)=O)NC(=O)[C@@H](NC(=O)[C@H](CC(=O)O)NC(=O)[C@H](CCCCN)NC(=O)[C@H](Cc1ccc(O)cc1)NC(=O)[C@@H](NC(=O)[C@@H](NC(=O)[C@H](CCCCN)NC(=O)[C@H](Cc1c[nH]c2ccccc12)NC(=O)[C@@H](NC(=O)[C@H](C)NC(=O)[C@H](Cc1ccccc1)NC(=O)[C@H](CC(C)C)NC(=O)[C@H](CCCCN)NC(C)=O)C(C)C)[C@@H](C)CC)[C@@H](C)O)[C@@H](C)O)C(N)=O (stereo partly specified)	Active	Active
Active	CCCCCCCCCCCCCCC(NC(=O)C(CCCCCCCCCCCCCC)NC(=O)[C@H](CO)NC(=O)[C@H](CO)NC(=O)[C@H](CCCCN)NC(=O)[C@H](CO[C@H]1O[C@H](CO)[C@H](O)[C@H](O)[C@H]1NC(C)=O)NC(C)=O)C(N)=O (stereo partly specified) (Ac-S(αGalNAc)KSS[ξGly(tetradecyl)][ξGly(tetradecyl)]-NH2)	–	–
